Experimental data as given in PMC12074596, “The histone deacetylase inhibitor CT-101 flips the switch to fetal hemoglobin expression in sickle cell disease mice” (PLOS One, 2025).

What was measured:
spleen = experiment: Spleen size and hematoxylin and eosin histology in SCD mice; assay type: in vivo, Townes SCD mice
Description: (§1) At the end of the 4-week treatment period, approximately 700 μL of blood was collected from each mouse into K3-EDTA tubes (Becton Dickinson, Franklin Lakes, NJ; catalog #365974) by cardiac puncture for plasma isolation after euthanasia using carbon dioxide gas. Subsequently, spleens were harvested for tissue stains, immunohistology, and protein isolation. A part of the spleen was fixed with buffered formaldehyde, embedded in paraffin, and sectioned into ~[…] thick slices for staining with hematoxylin and eosin for histology of spleen structures using a Keyence microscope (Keyence Itasca, IL). The immuno-histology staining was performed on frozen spleen sections using sheep polyclonal antibody against HbF conjugated with FITC (Life Technologies Corporation; catalog #A80-136F) and counterstained with DAPI (4′,6-diamidino-2-phenylindole) to identify the cell nucleus. The spleen tissue was analyzed using the EVOS cell imaging system (ThermoFisher, Waltham, MA) under x40 magnifications. The FITC-positive cells were counted for 15 high-power fields per section, and the mean average of the fields was used for statistical analysis.

HbF [1] = experiment: Immuno-histology of spleen with FITC anti-HbF antibody in SCD mice; assay type: in vivo, Townes SCD mice; conditions: end of four-week treatment
Description: as §1

micronuclei = experiment: Micronuclei assay in SCD mouse blood; assay type: in vivo, Townes SCD mice; conditions: end of treatment; p < 0.05
From the text: DNA was stained with propidium iodide/phycoerythrin for simultaneous measurement of cell viability, followed by FACSCAN flow cytometry analysis. Propidium iodide/phycoerythrin supplied in the MN analysis kit (Litron Laboratories, Rochester, NY; catalog #PLUS-M) was used as a positive control for CD71-FITC; the number of MN positive cells were counted in cell positive for CD71 and MN as previously published.

HbF [2] = experiment: Flow cytometry of F-cells and MFI in peripheral blood of β-YAC mice; assay type: in vivo, β-YAC transgenic mice; conditions: Study 1; HU 100 mg/kg; week 4; p < 0.001
Description: (§2) Each treatment group consisted of six mice per group (3 males and 3 females), and data was combined for 2 replicates for statistical analysis (n = 12). We collected tail vein blood at weeks 0, 2, and 4 and analyzed complete blood counts and differentials using an automated Micros 60 device (HORIBA Medical/ABX Diagnostics, Irvine, CA). The level of F-cells and mean fluorescence intensity (MFI) was determined by flow cytometry as previously published [28].
Flow cytometry was conducted on the FACSCanto machine (BD Biosciences, San Jose, CA) using gating parameters previously published by our group [28]. Briefly, the forward scatter and side scatter were set to gate erythroid cells, then during FLOWJO analysis, ‘log F-cell’‘ histograms (X-axis) generated to measure the percentage of HbF positive cells (F-cells) from total erythroid cells (Y-axis) after gating on the negative isotype control cells. The mean fluorescence intensity (MFI) to quantify the level of HbF protein per cell was generated by FLOWJO software.

Townes SCD mice [3] = experiment: Survival, weight and behavior of SCD mice (Study 3); assay type: in vivo, mouse; conditions: both replicates combined
Description: The study design was the same as in Studies 1 and 2, using SCD mice (4–6 months old) dosed once daily by IP injections, with water, HU (100 mg/kg), vehicle (FORM 3), CT-101 in FORM-3 (10 mg/kg), and combined HU and CT-101 administration. The study period was 4 weeks, and two independent replicates were combined for statistical analysis (n = 8–12). Blood collected at weeks 0, 2, and 4 were analyzed for complete blood count and differential, and F-cells and MFI quantified by flow cytometry. Blood stained with acridine orange (BD retic-count reagent) quantified reticulocytes by flow cytometry [31].

β-YAC transgenic mice = experiment: Complete blood counts, differentials and reticulocytes in β-YAC mice (Studies 1 and 2); assay type: in vivo, mouse
Description: as §2

histone H3 and H4 = experiment: Western blot of histone acetylation in spleen of SCD mice; assay type: in vivo, Townes SCD mice; conditions: end of treatment
Description: The total splenic cells were processed for histone acetylation levels by Western blot as previously published by our group.
Acidic histone extraction was performed according to standard protocols described previously by our group. […] Western blot quantitative data were collected by densitometry analysis using Image J software.

Townes SCD mice [4] = experiment: Complete blood counts, differentials and reticulocytes in SCD mice (Study 3); assay type: in vivo, mouse; conditions: HU 100 mg/kg; throughout the study; p < 0.01
Description: The study period was 4 weeks, and two independent replicates were combined for statistical analysis (n = 8–12). Blood collected at weeks 0, 2, and 4 were analyzed for complete blood count and differential, and F-cells and MFI quantified by flow cytometry. Blood stained with acridine orange (BD retic-count reagent) quantified reticulocytes by flow cytometry [31].

HbF expression = test system: HbF expression; design: method as in PMID 26045597; conditions: adults with SCD; cited from earlier work
[5] = Study 1, HU 100 mg/kg IP five days a week for four weeks

| Compound | decrease in overall spleen size (spleen; HU 100 mg/kg, four weeks, p < 0.01) | spleen histology (hematoxylin and eosin) (spleen; end of four-week treatment) | increase in HbF-positive erythroid cells in spleen tissue (HbF [1]) | increased production of micronuclei (micronuclei) | increase in F-cells (HbF [2]) | survival (Townes SCD mice [3]) | change in reticulocyte counts (β-YAC transgenic mice; Study 1, HU 100 mg/kg) | decrease in hematocrit (β-YAC transgenic mice; [5]) | decrease in hemoglobin (β-YAC transgenic mice; [5]) | decrease in platelets (β-YAC transgenic mice; [5]) | decrease in total white cell counts (β-YAC transgenic mice; [5]) | change in mean corpuscular volume of RBCs (β-YAC transgenic mice; Study 1, HU 100 mg/kg, p < 0.001) | effect on total white blood counts and platelets (β-YAC transgenic mice; Study 2, HU 100 mg/kg alone or with CT-101 10 mg/kg) | change in total or acetylated histone H3 and H4 levels in spleen (histone H3 and H4) | decrease in platelet counts (Townes SCD mice [4]) | HbF expression (HbF expression) |
| --- | --- | --- | --- | --- | --- | --- | --- | --- | --- | --- | --- | --- | --- | --- | --- | --- |
| NC(=O)NO [HU, hydroxyurea] | 37% | decrease in hemorrhagic infarcts and maturing extramedullary hematopoiesis | 1.8 fold | 1.8 fold | 5.4 fold | 83% | increase | 12% | 12% | 30% | 24% | increasing | decrease | not statistically significance differences | 50% |  |
| O=C(CCCCCCC(=O)Nc1ccccc1)NO [Vorinostat] |  |  |  |  |  |  |  |  |  |  |  |  |  |  |  | did not induce HbF expression |
